These results are taken from ChEMBL document CHEMBL1134083, “Discovery of a nuclease-resistant, non-natural dinucleotide that inhibits HIV-1 integrase” (Bioorg Med Chem Lett, 2001).

The target in experiment [1] is T1, Human immunodeficiency virus type 1 integrase (Human immunodeficiency virus 1, UniProt Q7ZJM1). As to the kind of experiment: Inhibitory concentration required against recombinant wild type HIV integrase by reproducible assay (3' processing).
For experiment [2], the target named is T1, Human immunodeficiency virus type 1 integrase. The experiment can be described thus: Inhibitory concentration required against recombinant wild type HIV integrase by reproducible assay (Strand transfer).

T1 sequence (Q7ZJM1 whole entry): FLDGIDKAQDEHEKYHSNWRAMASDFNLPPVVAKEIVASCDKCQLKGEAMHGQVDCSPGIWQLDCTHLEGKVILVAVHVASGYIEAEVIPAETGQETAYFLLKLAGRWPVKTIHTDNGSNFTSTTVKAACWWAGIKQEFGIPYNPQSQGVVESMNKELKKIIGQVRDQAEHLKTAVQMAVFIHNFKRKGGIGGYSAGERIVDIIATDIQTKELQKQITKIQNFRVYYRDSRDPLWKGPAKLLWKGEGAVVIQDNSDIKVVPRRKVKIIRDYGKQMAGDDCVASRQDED

Usually IC50 stands for the point on the concentration scale where inhibition reaches its midpoint. Consider `Nc1ccn([C@H]2C[C@H](OP(=O)(O)OC[C@H]3OC[C@@H](n4ccc(=O)[nH]c4=O)[C@@H]3O)[C@@H](COP(=O)(O)O)O2)c(=O)n1`, for which the half-inhibitory concentration (IC50) is 7.5 µM in experiment [1] and 5.9 µM in experiment [2].
